system: NLRP3 inflammasome-induced IL-1β release from murine peritoneal macrophages (pMΦ); assay: IL-1β release from primary resident peritoneal macrophages (ELISA); format: cell-based, mice; settings: LPS + 3% DSS, z-YVAD-fmk 10 μM, K+ 130 mM, bafilomycin A1 10 nM, NAC 20 mM
Description: Primary resident peritoneal macrophages (pMΦ) of WT or Nlrp3−/− mice were generated as described elsewhere (Bauer et al. 2010). Briefly, mice were sacrificed under isoflurane anesthesia by cervical dislocation. Peritoneal lavage was then performed by exposing the parietal peritoneum and injecting intraperitoneally with a transpipette 10 ml of 2% FBS in PBS. The peritoneal lavage fluid was centrifuged and re-suspended at the desired concentration. The adherent pMΦ (F 4/80 positive cells) subset consists about 20% of the peritoneal lavage as observed by flow cytometer analysis. Cells were then plated into culture dishes overnight. Cells were washed, and adherent cells were used for cytokine assays. Where indicated, experiments were performed after four weeks of co-housing WT and NLRP3-deficient mice to neutralize the microbiota effect.
pMΦ were seeded into 96-well plates at a density of 2×10^5 cells per well. After LPS priming for 1 h, cells were stimulated with different activators for 24 h. Cell culture supernatant was used for ELISA (Biolegend, San Diego Calif., USA), which was performed according to the manufacturer's protocol.
In order to examine the effect of the apoptotic cell composition on inflammasome-induced IL-1β release, isolated macrophages were exposed to lipopolysaccharide (LPS) and DSS with or without earlier interaction with apoptotic cells for two hours.
Given the need for TLR triggering through NF-κB signaling, and the fact that apoptotic cells can inhibit NF-κB, and therefore inhibit […] secretion in the absence of inflammasome inhibition, a set of experiments was initiated to elucidate whether IL-1β secretion is inhibited both at NF-κB and NLRP3 levels by apoptotic cells. Resident peritoneal macrophages (pMΦ) were either incubated with apoptotic cells, washed, and primed with LPS following stimulation with various inflammasome inducers, or were first primed with LPS, allowing accumulation of de novo […] transcription and then treated with apoptotic cells and inducers.

Molecule	DSS-mediated IL-1β release
[Cl-].[K+] [KCl]	inhibited
CC(=O)N[C@@H](CS)C(=O)O [N-acetyl-L-cysteine]	significantly inhibited
CO/C1=C\C(C)=C\[C@@H](C)[C@@H](O)[C@@H](C)C/C(C)=C/C=C/[C@H](OC)[C@@H]([C@@H](C)[C@@H](O)[C@H](C)[C@@]2(O)C[C@@H](O)[C@H](C)[C@@H](C(C)C)O2)OC1=O [bafilomycin, bafilomycin A1]	inhibited
z-YVAD-fmk	almost complete inhibition
